Assay results: US20040024024A1, “Aromatic sulfone hydroxamates and their use as protease inhibitors” (priority 2001, published 2004)

Tests used:
Human recombinant MMP-2 = biological target: T1, Human recombinant MMP-2 (Homo sapiens, UniProt P08253); experiment: In vitro MMP inhibition, Ki determination (fluorogenic substrate II); assay type: biochemical
T1 construct: made in house; host or cells: MMP-2-transfected p2AHT2 cells
T1 sequence (P08253 110-660): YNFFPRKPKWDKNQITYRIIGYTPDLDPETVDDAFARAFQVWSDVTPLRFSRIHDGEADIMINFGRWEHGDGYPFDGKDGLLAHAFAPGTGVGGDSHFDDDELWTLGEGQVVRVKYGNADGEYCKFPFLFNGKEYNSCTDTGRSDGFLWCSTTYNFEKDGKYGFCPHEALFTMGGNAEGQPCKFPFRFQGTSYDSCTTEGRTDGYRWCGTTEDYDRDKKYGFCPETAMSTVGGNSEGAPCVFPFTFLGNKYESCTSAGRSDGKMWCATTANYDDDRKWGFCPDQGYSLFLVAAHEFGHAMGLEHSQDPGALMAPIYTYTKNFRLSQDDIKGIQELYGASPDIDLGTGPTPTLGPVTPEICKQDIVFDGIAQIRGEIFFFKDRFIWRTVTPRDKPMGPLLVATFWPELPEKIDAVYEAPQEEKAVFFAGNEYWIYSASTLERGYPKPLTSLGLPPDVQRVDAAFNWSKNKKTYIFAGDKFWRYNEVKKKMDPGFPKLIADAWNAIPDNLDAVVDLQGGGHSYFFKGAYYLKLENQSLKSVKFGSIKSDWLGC

Human recombinant MMP-9 = biological target: T2, Human recombinant MMP-9 (Homo sapiens, UniProt P14780); experiment: as above; assay type: biochemical
T2 construct: made in house; host or cells: MMP-9-transfected HT1080 cells (spent media)
T2 sequence (P14780 107-707 limits assumed): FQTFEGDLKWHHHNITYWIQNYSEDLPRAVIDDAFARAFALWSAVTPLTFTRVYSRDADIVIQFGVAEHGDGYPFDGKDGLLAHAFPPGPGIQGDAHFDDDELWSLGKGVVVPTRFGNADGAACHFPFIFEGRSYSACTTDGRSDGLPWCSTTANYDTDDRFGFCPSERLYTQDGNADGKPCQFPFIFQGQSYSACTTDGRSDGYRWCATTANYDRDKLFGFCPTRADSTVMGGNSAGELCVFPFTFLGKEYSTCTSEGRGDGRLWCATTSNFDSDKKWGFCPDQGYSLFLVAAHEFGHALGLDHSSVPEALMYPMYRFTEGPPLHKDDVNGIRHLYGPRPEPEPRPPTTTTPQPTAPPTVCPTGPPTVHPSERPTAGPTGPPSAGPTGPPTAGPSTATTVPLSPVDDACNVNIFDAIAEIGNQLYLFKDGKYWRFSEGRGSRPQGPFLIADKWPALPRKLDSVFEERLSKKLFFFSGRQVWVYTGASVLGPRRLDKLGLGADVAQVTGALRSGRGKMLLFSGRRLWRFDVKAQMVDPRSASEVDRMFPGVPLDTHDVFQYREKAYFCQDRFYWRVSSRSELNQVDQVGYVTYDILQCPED
Method: Several hydroxamates and salts thereof were analyzed in in vitro assays to determine their ability to inhibit the MMP cleavage of peptide substrates. Inhibition (Ki) and IC50 constants were calculated from the assayed hydroxamate-MMP interactions.
Human recombinant MMP-1, MMP-2, MMP-9, MMP-13, and MMP-14 were used in this assay. All enzymes were prepared in Assignee's laboratories following usual laboratory procedures. Protocols for the preparation and use of these enzymes are available in the scientific literature. See, e.g., Enzyme Nomenclature (Academic Press, San Diego, Calif., 1992) (and the citations therein). See also, Frije et al., J. Biol. Chem., 26(24), 16766-73 (1994).
The MMP-9 proenzyme was purified by gelatin Sepharose chromatography from spent media of MMP-9-transfected HT1080 cells provided by Dr. Howard Welgus of Washington University (St. Louis, Mo.).
All MMPs were activated using 4-aminophenylmercuric acetate (“APMA”, Sigma Chemical, St. Louis, Mo.) or trypsin. MMP-9 also was activated using human recombinant MMP-3 (purified in Assignee's laboratory following standard cloning and purification techniques).
Two fluorogenic, methoxycoumarin-containing polypeptide substrates were used in the MMP inhibition assays:
MCA-ArgProLeuGlyLeuDpaAlaArgGluArgNH2 (II)
Here, “Dpa” is 3-(2,4-dinitrophenyl)-L-2,3-diaminopropionyl group, and “MCA” is 7-methoxycoumarin-4-yl acetyl. Substrate (I) was purchased from Baychem (Redwood City, Calif.), and substrate II was prepared Assignee's laboratory. Substrate I was used in the IC50 determination assays, while substrate II was used in the Ki determination assays. In the absence of MMP inhibitory activity, either substrate is cleaved at the Gly-Leu peptide bond. This cleavage separates the highly fluorogenic peptide from the 2,4-dinitrophenyl quencher, thus resulting in increase of fluorescent intensity.
The stock solutions of the assayed hydroxamates (or salts thereof) were prepared in 1% dimethyl sulfoxide (DMSO). These stock solutions were diluted in Buffer A (100 mM Tris-HCl, 100 mM NaCl, 10 mM CaCl2, 0.05% polyoxyethylene 23 lauryl ether, pH 7.5) to obtain solutions with different hydroxamate concentrations, i.e., assay solutions with different concentrations of the assayed MMP inhibitory compound. The experiment controls contained the same amount of Buffer A/DMSO as the assayed sample, but contained no hydroxamate (or salt thereof).
The assays from which the Ki determinations were made were performed as follows. The assayed hydroxamate samples were incubated in separate wells of untreated white polystyrene plates (Nunc Nalgene International, Rochester, N.Y.), and analyzed on a Tecan SpectraFlour Plus plate reader. The excitation wavelength was 330 nm, and the emission wavelength—420 nm. All samples (assayed hydroxamates and controls) were incubated in separate plate wells at room temperature for 1 hr in the presence of 4 μM of MMP substrate (II). In the absence of MMP inhibitory activity, substrate II was cleaved at the Gly-Leu bond resulting in an increase of relative fluorescence. Inhibition was observed as a reduced rate of this increase in relative fluorescence. The various hydroxamates were analyzed using a single low enzyme concentration with a single substrate concentration fixed at or below the Km. This protocol is a modification of method by Knight et al., FEBS Lett., 296(3), 263-266 (1992). Apparent inhibitory constants were determined by non-linear regression of reaction velocity as a function of inhibitor and enzyme concentration using Morrison's equation, as described by Kuzmic, Anal. Biochem. 286, 45-50 (2000). Modifications were made in the non-linear regression method to allow a common control reaction rate and effective enzyme concentration to be shared between all dose-response relationships on a given assay plate. […]

[1] = substrate (II) 4 μM, 1 hr room temperature, apparent Ki, values in parenthesis

Compound | Ki (Human recombinant MMP-2; [1]) [µM] | Ki (Human recombinant MMP-9; [1]) [µM] | Ki (Human recombinant MMP-2; value in parenthesis) [µM] | Ki (Human recombinant MMP-9; value in parenthesis) [µM]
COCCN1CCC(C(=O)NO)(S(=O)(=O)c2ccc(OCCc3cccc(-c4ccccc4)c3)cc2)CC1 [Example 45] | 0.225 | 0.499 |  | 
COCCN1CCC(C(=O)NO)(S(=O)(=O)c2ccc(OCCCc3cccc(-c4ccc(Cl)cc4)c3)cc2)CC1 [Example 50] | 1.13 | 0.304 |  | 
COCCN1CCC(C(=O)NO)(S(=O)(=O)c2ccc(OCCCc3cccc(-c4ccc(F)c(F)c4)c3)cc2)CC1 [Example 52] | 0.543 | 0.617 |  | 
O=C(NO)C1(S(=O)(=O)c2ccc(OCCCc3nc(-c4ccc(OC(F)(F)F)cc4)no3)cc2)CCN(Cc2ccccc2)CC1 [Example 93] |  |  | 0.676 | 1.12
CC(C)c1ccc(-c2cccc(CCOc3ccc(S(=O)(=O)C4(C(=O)NO)CCOCC4)cc3)c2)cc1 [Example 109] |  |  | 8.1 | > 10
O=C(NO)C1(S(=O)(=O)c2ccc(OCCc3cccc(-c4cc(F)cc(F)c4)c3)cc2)CCOCC1 [Example 110] |  |  | 0.112 | 4.34
O=C(NO)C1(S(=O)(=O)c2ccc(OCCc3cccc(-c4cccc(F)c4)c3)cc2)CCOCC1 [Example 111] |  |  | 0.769 | 2.68
O=C(NO)C1(S(=O)(=O)c2ccc(OCCc3cccc(-c4ccc(OC(F)(F)F)cc4)c3)cc2)CCOCC1 [Example 112] |  |  | 3.97 | 8.85
O=C(NO)C1(S(=O)(=O)c2ccc(OCCc3cccc(-c4ccccc4Cl)c3)cc2)CCOCC1 [Example 114] |  |  | 1.5 | 4.87
Cc1ccccc1-c1cccc(CCOc2ccc(S(=O)(=O)C3(C(=O)NO)CCOCC3)cc2)c1 [Example 116] |  |  | 1.25 | 5.55
Cc1ccc(-c2cccc(CCOc3ccc(S(=O)(=O)C4(C(=O)NO)CCOCC4)cc3)c2)cc1C [Example 117] |  |  | 3.64 | 9.91
Cc1cc(-c2cccc(CCOc3ccc(S(=O)(=O)C4(C(=O)NO)CCOCC4)cc3)c2)ccc1Cl [Example 118] |  |  | 2.65 | > 10
COc1ccc(-c2cccc(CCOc3ccc(S(=O)(=O)C4(C(=O)NO)CCOCC4)cc3)c2)cc1C [Example 119] |  |  | 1.68 | 3.95
O=C(NO)C1(S(=O)(=O)c2ccc(OCCc3cccc(-c4ccc(Cl)c(Cl)c4)c3)cc2)CCOCC1 [Example 121] |  |  | 4.62 | > 10
O=C(NO)C1(S(=O)(=O)c2ccc(OCCc3cccc(-c4ccc(Cl)cc4Cl)c3)cc2)CCOCC1 [Example 124] |  |  | 5.73 | > 10
O=C(NO)C1(S(=O)(=O)c2ccc(OCCc3cccc(-c4cc(Cl)cc(Cl)c4)c3)cc2)CCOCC1 [Example 126] |  |  | 6.36 | > 10
COCCN1CCC(C(=O)NO)(S(=O)(=O)c2ccc(OCCCc3nc(-c4ccc(CC(C)C)cc4C)no3)cc2)CC1 [Example 128] |  |  | 1.13 | 3.55
NC(=O)c1cccc(-c2noc(CCCOc3ccc(S(=O)(=O)C4(C(=O)NO)CCN(C5CC5)CC4)cc3)n2)c1 [Example 129] |  |  | 0.05 | 0.11
COCCN1CCC(C(=O)NO)(S(=O)(=O)c2ccc(OCCCc3nc(-c4ccc(Br)cc4C)no3)cc2)CC1 [Example 135] |  |  | 0.0585 | 0.457
O=C(NO)C1(S(=O)(=O)c2ccc(OCCCc3nc(C4CCCCC4)no3)cc2)CCN(C2CC2)CC1 [Example 137] |  |  | 0.0366 | 0.604
